Patent EP0695746A2, “Antiviral compounds and pharmaceutical compositions” (PHARMA MAR, S.A., priority 1994, dated 1996)
≈ marks a conversion by molar mass, not a printed value. Each block holds one molecule with its values, some of them ahead of it.

Columns and labels:
CEM-SS cells [1] = experiment: XTT cytoprotection assay (Cytotoxic Assay), toxicity wells without virus; type: cell-based, human; conditions: Table VI, assay date
Experimental: This assay is a measure of the viability of human T cell lines after infection with HIV in the presence of potential antiviral compounds. The results are assessed spectrophometrically by reading optical densities after the addition of XTT to determine if the viable cells reduced the pale yellow tetrazolium reagent (XTT) to an orange formazan product. This assay can be utilized for the initial screen of large numbers of samples. For the cytoprotection assay CEM-SS cells and HIV-1 RF strain of virus were used. Test samples were first diluted in an appropriate solvent, and 10 to 50 μl were transferred to the test plate. If the solvent was methanol or a similar solvent, the plates were allowed to evaporate. If medium was used for dilutions the plates were covered and the volume of test sample was taken into consideration when adding cells and virus. At each test concentration 50 μl of sample were added to three wells, one for toxicity tests, one for color control, and one for antiviral activity. Assuming the solvent was evaporated, 150 μl cells are added to all wells, except the control wells for medium only, so that the cell concentration per well was 5000. Then 50 μl of HIV-1 virus was added to each test well so that the M.O.I. was approximately 0.31. For toxicity tests 50 μl of medium were added to the control well. The plates were incubated in 5% CO2 for 6 days at 37°C. After incubation, the XTT solution was added to the plates, and after 4 hours incubation at 37°C the plates are covered with clear plastic sealers. Cell viability was measured by the visible light absorbance at 450 nm and a reference wavelength of 650 nm. Data were expressed as a percentage of formazan produced in drug test wells compared to formazan produced in wells of untreated control cells. CEM-SS cells were maintained with growth medium RPMI 1640, 10% fetal bovine serum, 2% L-glutamine (200 mM), and 50 μg/ml gentamicin in a 5% CO2 water-saturated atmosphere. Cells were maintained in the logarithmic growth state by subdividing cultures when the cell concentrations reach an upper limit of 1 x 10^6 cells per ml. […] Polybrene medium was removed by centrifugation, and CEM-SS cells were resuspended in growth medium. If solvents were evaporated the cell concentration was 33,500 cells per ml so that 150 μl contained 5000 cells. If medium was the dilution vehicle then the cell concentration was 50,000 so that 100 μl contained 5000 cells. The total test volume for medium, cells, and virus was 200 μl. Dissolve XTT in medium, add PMS/PBS. Warm to 37°C for approximately 10 to 15 minutes to obtain an homogeneous solution. Add 50 μl per plate Incubate for 4 hours. Read A(450-650) nm. B.2.5. Data processing After the plates were read spectrophotometrically the data was transferred via modem from the laboratory to the office. The data was processed to convert optical density readings to a percentage of inhibition compared to CEM-SS cells that have not been infected with HIV-1 virus. C = cells D = Drug or Sample M = Medium V = Virus M = medium only in well V = medium + CEM-SS cells + virus in well (M + C) = medium + CEM-SS cells (M + D) = medium + drug in well (M + D + C) = medium + drug + CEM-SS cell in well (M+D+C+V) = medium + drug + CEM-SS cells + virus in well.

HIV-1 RF [2] = experiment: Syncytium-forming assay (Syncytia assay), antiviral activity; type: cell-based
Source text: To determine the HIV-1 viral titers the quantitative infectivity syncytium-forming assay described by P.L. Nara and P.J. Fischinger, "Quantitative Infectivity Assay for HIV-1 and -2," Nature, 332: 469 (1988)) was used. In this assay a single infectious unit of virus infects a single cell and initiates a focal cell change such as syncytium formation. Because a single infectious unit causes a single response, a linear relationship exists between the number of cytopathic effects caused by viral infection and the first order of virus concentration. This quantitative assay can be used to determine the titers of the HIV-1 in viral stocks, neutralization tests, and antiviral assays.
The quantitative infectivity syncytium-forming assay is applied for the direct quantitation of fusigenic virus-infected cells. CEM-SS cells were used for the syncytium-forming assay. CEM-SS cell are human T4-lymphoblastoid cells of a cell line initially derived by G.E. Foley, et al., "Continuous Culture to Human Lymphoblasts from Peripheral Blood of a Child with Acute Leukemia," Cancer, 18: 522 (1965) and biologically cloned by Nara et al., supra. The cells for this assay were provided by Dr. Nara.
CEM-SS cells were maintained in a growth medium of RPMI 1640, 10% fetal bovine serum, 1% L-glutamine (200 mM) and 50 µg/ml of gentamicin. CEM-SS cells grow in suspension. The cells have been cloned for both poly-L-lysine-induced adherence to microtiter plates and virus-induced syncytial and fusogenic sensitivity following infection with either cell-free or cell-associated HIV-1 and HIV-2. It has been determined that the cells are negative for virus including human retroviruses as determined by electron microscopy and reverse transcriptase analysis.
A.4.1. Use 96-wells flat bottom tissue culture plates and score the bottoms of all wells into 4 quadrants. A.4.2. Add 50 µl/well of diluted poly-L-lysine. Prepare stock poly-L-lysine (Poly-L-lysine hydrobromide, Sigma catalog, cat. # P-1399) at 5 mg/ml and store at -20°C for future use. For the assay dilute the stock poly-L-lysine 1:100 using phosphate buffered saline (PBS). A.4.3. Incubate plates at room temperature for no less than 30 minutes. A.4.4. Remove poly-L-lysine from wells. A.4.5. Wash the plates with 100 µl/well of Dulbecco's PBS and remove the excess PBS. A.4.6. Dilute CEM-SS cells in a logarithmic state of growth to 0.5 x 10⁶ cells per ml in a serum free medium and add 1 µg/ml polybrene. Incubate the cell suspension at 37°C for 60 minutes. Centrifuge at 800 rpm for 10 minutes and decant the supernatant fluid. A.4.7. Dilute the treated CEM-SS cell suspension to 5.0 x 10⁵ cells. Add 100 µl to the test wells so that the final cell concentration is 50,000 cells per well. Make ten-fold dilutions of the viral stock. Add 50 µl to the test wells. Add 50 µl growth medium to bring the total test volume to 200 µl. On day 3 place a clear plastic film (plate sealers, Dynatech Laboratories, Inc., cat # 001-010-3501) over the microtiter wells and evaluate for syncytium forming units (SFU).
The assay described above for determining viral titers of HIV-1 stock virus can be modified and used to evaluate the antiviral activity of compounds. A.5.1. Plates are treated with poly-L-lysine the same as above, and CEM-SS cells are polybrene treated. A.5.2. Dilute test compound in medium to desired concentrations. A.5.3. Add 100 µl CEM-SS cells to each well so that the final cell concentration is 50,000 cells per well. A.5.4. Add 50 µl of the test compound at each respective concentration to at least two wells, or four for one replicate assay. A.5.5. Add 50 µl growth medium to drug control wells. A.5.6. Add 50 µl HIV-1 virus to test wells at a concentration that provides approximately 100 SFU of virus per well. A.5.7. Run appropriate cell and viral controls. A.5.8. Incubate plates for 3 to 5 days. A.5.9. On day 3 to 5 cover plates with clear plastic sealers and count syncytial-forming units in the test wells and viral control wells.

CEM-SS cells [3] = experiment: Syncytium-forming assay (Syncytia assay), toxicity in drug control wells; type: cell-based; conditions: Homo sapiens
Experimental: The assay described above for determining viral titers of HIV-1 stock virus can be modified and used to evaluate the antiviral activity of compounds. A.5.1. Plates are treated with poly-L-lysine the same as above, and CEM-SS cells are polybrene treated. A.5.2. Dilute test compound in medium to desired concentrations. A.5.3. Add 100 µl CEM-SS cells to each well so that the final cell concentration is 50,000 cells per well. A.5.4. Add 50 µl of the test compound at each respective concentration to at least two wells, or four for one replicate assay. A.5.5. Add 50 µl growth medium to drug control wells. A.5.6. Add 50 µl HIV-1 virus to test wells at a concentration that provides approximately 100 SFU of virus per well. A.5.7. Run appropriate cell and viral controls. A.5.8. Incubate plates for 3 to 5 days. A.5.9. On day 3 to 5 cover plates with clear plastic sealers and count syncytial-forming units in the test wells and viral control wells. To determine if the test compounds have antiviral activity, compare the total number of SFU in the viral control to those enumerated in the test wells.

CD-1 mice = experiment: In vivo toxicity test, single injection
Experimental: The LD₅₀ for the compound was > 150 mg/kg.

HIV-1 p24 core antigen = experiment: p24 ELISA on supernatant of the cytotoxic assay wells; type: cell-based
Experimental: Secondary assays for evaluating antiviral activity included the syncytial-forming assay and p24 ELISA's. The first assay was described above. The p24 assay was performed by purchasing the p24 kit for the human immunodeficiency virus for p24 antigen assays from the Coulter Corporation, Hialeah, FL. […] The preparation of a mouse monoclonal antibody with high specificity and affinity for the viral p24 protein has allowed the development of an extremely sensitive ELISA for HIV-1 p24 core antigen.
An assay for antiviral activity to HIV-1 was started on 10-28-93 using the cytotoxic assay as described above and HIV-1 activity was observed microscopically in this sample on day 4 of the cytotoxic assay. On day six, 10 µl of supernatant fluid were removed from the cytotoxic wells and assayed for p24. The results of the cytotoxic assay, p24 assay, and syncytia assay were: […]

HIV-1 RF [4] = experiment: XTT cytoprotection assay (called Cytotoxic Assay in the tables), antiviral activity; type: cell-based
Experimental: Changes were made to accommodate changes in solvent systems and drug test dilutions.
For the cytoprotection assay CEM-SS cells and HIV-1 RF strain of virus were used. Test samples were first diluted in an appropriate solvent, and 10 to 50 µl were transferred to the test plate. If the solvent was methanol or a similar solvent, the plates were allowed to evaporate. If medium was used for dilutions the plates were covered and the volume of test sample was taken into consideration when adding cells and virus. At each test concentration 50 µl of sample were added to three wells, one for toxicity tests, one for color control, and one for antiviral activity. Assuming the solvent was evaporated, 150 µl cells are added to all wells, except the control wells for medium only, so that the cell concentration per well was 5000. Then 50 µl of HIV-1 virus was added to each test well so that the M.O.I. was approximately 0.31. For toxicity tests 50 µl of medium were added to the control well. The plates were incubated in 5% CO₂ for 6 days at 37°C. After incubation, the XTT solution was added to the plates, and after 4 hours incubation at 37°C the plates are covered with clear plastic sealers. Cell viability was measured by the visible light absorbance at 450 nm and a reference wavelength of 650 nm. Data were expressed as a percentage of formazan produced in drug test wells compared to formazan produced in wells of untreated control cells.
Cells were maintained in the logarithmic growth state by subdividing cultures when the cell concentrations reach an upper limit of 1 x 10⁶ cells per ml.
For antiviral assays CEM-SS cells at a cell concentration of 5.0 x 10⁵ in serum free medium were treated with polybrene at a concentration of 1 µg/ml and incubated for 30 to 60 minutes at 37°C. Polybrene medium was removed by centrifugation, and CEM-SS cells were resuspended in growth medium. If solvents were evaporated the cell concentration was 33,500 cells per ml so that 150 µl contained 5000 cells. If medium was the dilution vehicle then the cell concentration was 50,000 so that 100 µl contained 5000 cells. The total test volume for medium, cells, and virus was 200 µl.
Store frozen at -20°C (0.1 to 0.2 ml per vial). Warm to 37°C as needed. […] PMS dilution for XTT medium: Dilute PMS stock from freezer 1:100 in PBS. Add 4% to medium. […] Formula for XTT/PMS solution for 1 plate (5 ml per plate)
Dissolve XTT in medium, add PMS/PBS. Warm to 37°C for approximately 10 to 15 minutes to obtain an homogeneous solution. Add 50 µl per plate Incubate for 4 hours. Read A(450-650) nm. […] The data was processed to convert optical density readings to a percentage of inhibition compared to CEM-SS cells that have not been infected with HIV-1 virus. C = cells D = Drug or Sample M = Medium V = Virus
% toxicity = 100 - [(((M + D + C) - M) ÷ ((M + C) - M)) * 100] [formula] % antiviral = ((M + D + C + V)-V-M)) ÷ ((M + D + C)-(V-M))) * 100 [formula]

HIV-1 = HIV-1 antiviral in vitro assays; type: cell-based
[5] = Homo sapiens, CEM-SS, read-out: IC50 (converted)
[6] = Human immunodeficiency virus 1, Table VI, Syncytia Assay, 06-29-94, read-out: EC50 (converted)
[7] = Table VI, Syncytia Assay, 06-29-94
[8] = Table III, Syncytia Assay (M.O.I. = .005)
[9] = Human immunodeficiency virus 1, Table VI, Cytotoxic Assay, assay date, read-out: EC50 (converted)

EC50 (HIV-1 RF [2]; [6]): 1.2 µg/mL
SMILES: CC1(C)CCC[C@@]2(C)[C@@H](c3ccsc3)C(=O)[C@@H]3O[C@]312 [PM-94117]
IC50 (CEM-SS cells [1]; [5]): 12.5 µg/mL (≈ 45.2 µM)
SI (HIV-1 RF [2]; [7]): 13
IC50 (CEM-SS cells [3]; [7]): 15 µg/mL (≈ 54.3 µM)

SMILES: CC1(C)CCC[C@@]2(C)[C@H](c3ccoc3)C(=O)[C@H]3O[C@@]312 (racemic) [PM-92131 (±)]
LD₅₀ (CD-1 mice): > 150 mg/kg
EC50 (HIV-1 p24 core antigen; Human immunodeficiency virus 1, Table I, P24 ELISA): 0.5 µg/mL (≈ 1.92 µM)
EC50 (HIV-1 p24 core antigen; Human immunodeficiency virus 1, Table III, p24 ELISA Assay): 0.35 µg/mL (≈ 1.34 µM)

SMILES: CC1(C)CCC[C@@]2(C)[C@H](c3ccsc3)C(=O)[C@H]3O[C@@]312 (racemic) [SU-0096(±)]
IC50 (CEM-SS cells [1]; [5]): 4.5 µg/mL (≈ 16.3 µM)

EC50 (HIV-1 RF [2]; Human immunodeficiency virus 1, Table IV, Syncytia Assay, MOI 0.002, read-out: EC₅₀): 10 nM
EC50 (HIV-1 RF [2]; Human immunodeficiency virus 1, Table IV, Syncytia Assay, MOI 0.004, read-out: EC₅₀): 10 nM
EC50 (HIV-1 RF [2]; Human immunodeficiency virus 1, Table IV, Syncytia Assay, MOI 0.008, read-out: EC₅₀): 10 nM
EC50 (HIV-1 RF [2]; Human immunodeficiency virus 1, Table IV, Syncytia Assay, MOI 0.016, read-out: EC₅₀): 70 nM
SMILES: Cc1cn([C@H]2C[C@H](N=[N+]=[N-])[C@@H](CO)O2)c(=O)[nH]c1=O [AZT, 3'-azido-3'-deoxythymidine, reference compound]
EC50 (HIV-1 RF [4]; Human immunodeficiency virus 1, Table V, Cytoprotection Assay, MOI 0.037, read-out: EC₅₀): 100 nM
EC50 (HIV-1 RF [4]; Human immunodeficiency virus 1, Table V, Cytoprotection Assay, MOI 0.074, read-out: EC₅₀): 460 nM
EC50 (HIV-1 RF [4]; Human immunodeficiency virus 1, Table V, Cytoprotection Assay, MOI 0.149, read-out: EC₅₀): 1300 nM

SMILES: CC1(C)CCC[C@]2(C)[C@@H](c3ccoc3)C(=O)[C@@H]3O[C@]312 [PM-92131 (-)]
HIV-1 antiviral activity (in words) (HIV-1): active against HIV-1
EC50 (HIV-1 RF [2]; Human immunodeficiency virus 1, Table III, Syncytia Assay (M.O.I. = .005), read-out: EC50 (converted)): 4 µg/mL
SI (HIV-1 RF [2]; [8]): 10
IC50 (CEM-SS cells [3]; [8]): 40 µg/mL (≈ 154 µM)

EC50 (HIV-1 RF [2]; [6]): 2 µg/mL
SMILES: CC1(C)CCC[C@@]2(C)[C@H](c3ccccc3)C(=O)[C@H]3O[C@@]312 (racemic) [PM-94118(±)]
EC50 (HIV-1 RF [4]; [9]): 3 µg/mL
IC50 (CEM-SS cells [1]; [5]): 9 µg/mL (≈ 33.3 µM)
IC50 (CEM-SS cells [1]): 1.87 μg/200 μl
SI (HIV-1 RF [2]; [7]): 10
IC50 (CEM-SS cells [3]; [7]): 20 µg/mL (≈ 74 µM)

SMILES: CC1(C)CCC[C@]2(C)[C@H](c3ccsc3)C(=O)[C@H]3O[C@@]312 (racemic) [PM-94116 & PM-94117 (1:1)]
EC50 (HIV-1 RF [4]; [9]): 2.15 µg/mL
SI (HIV-1 RF [4]; Table VI, Cytotoxic Assay): 2
HIV-1 antiviral activity (in words) (HIV-1): exhibit anti-HIV-1 activity
IC50 (CEM-SS cells [1]; [5]): 4.35 µg/mL (≈ 15.7 µM)
EC50 (HIV-1 RF [2]; [6]): 1 µg/mL
SI (HIV-1 RF [2]; [7]): 11
IC50 (CEM-SS cells [3]; [7]): 11 µg/mL (≈ 39.8 µM)
